In patent US6906170B1 (Yeda Research and Development Co. Ltd., priority 1998, dated 2005):
No end group written: not given here.

Experiments:
human T cells [1] = assay: Secretion of TNF-α and IFN-γ from proliferating T cells; format: cell-based; conditions: peptide 1 to 100 pg/ml; not shown
human T cells [2] = assay: T cell chemotaxis through FN-coated polycarbonate membranes; format: cell-based; conditions: peptide 1 pg/ml, FN-coated membrane; for inhibition of T cell migration toward IL-2: IL-2 10 U/ml in lower compartment, p<0.01; for inhibition of T cell chemotaxis toward MIP-1β: MIP-1β in lower compartment
Protocol: T cell migration towards the chemotactic sources was assessed after 2 hr. One experiment representative of four.
Chemotaxis assays. T cell chemotaxis was performed and analyzed as previously described (Ben-Baruch et al., 1997). Briefly, the migration of human T cells (0.5×10^6 cells in adhesion medium/well) was examined in a 48-well chemotaxis micro-chamber (Neuro-Probe Inc., Cabin John, M D). The two compartments of the micro-chambers were separated by a FN-coated polycarbonate filter (5 μm pore size; Osmonics Protein Products, Livemore, Calif.). […] After incubation (120 min, 37° C., in a humidified, 7.5% CO2 atmosphere); the filters were removed, fixed, and stained with a Diff-Quik staining kit Dade, Düdingen, Switzerland). The number of migrating T cells in five high-power fields (under 500× magnification; WILD Microscope, Heerbrugg, Switzerland) was evaluated. For each group, the results are expressed as the mean number of cells in one high-power field.
Immune cell migration is the outcome of a subtle biological equilibrium existing between adhesion and detachment events. Lymphocyte adhesion to the subendothelial ECM and subsequent migration are two active processes that can overlap, but are not mutually dependent events. Adhesion and migration may depend on the ability of the T cells to continuously integrate different pro- and anti-adhesive signals via their versatile receptors for ECM, chemokines, cytokines, and possibly, also antigenic moieties.

Substance | inhibition of secretion of TNF-α and IFN-γ from proliferating T cells (human T cells [1]) | inhibition of T cell migration toward IL-2 (human T cells [2]) | inhibition of T cell chemotaxis toward MIP-1β (human T cells [2])
Glu-Phe-Leu-Asn-Arg-Trp-Ile-Thr (EFLNRWIT; not fully specified (C-terminus); printed as Glu-Phe-Leu-Asn-Arg-Trp-Ile-Thr) [pep2] | nor did these peptides inhibit the secretion of TNF-α and IFN-γ | ~60% | only a limited inhibitory effect
Ile-Val-Leu [pep1] | nor did these peptides inhibit the secretion of TNF-α and IFN-γ | about 30% | 80%
